Reference: patent US20240400555A1 (Initial Therapeutics, Inc., priority 2023, published 2024)
pIC50: −log10 of the molar value.

test system: MV-4-11 cells; test: Cell Viability Assay in MV-4-11 Cells; format: cell-based; details: Homo sapiens, MV4-11, 72 h, MV-4-11 cells, 72 h, Cell-Titer Glo; read-out: IC50
Procedure: MV-4-11 cells (ATCC) were seeded into sterile 96-well flat clear bottom white polystyrene TC-treated microplates (Corning) at 7,000 cells/well in 150 μL complete growth medium (Iscove's Modified Dulbecco's Medium (IMDM) (Gibco), 10% Heat Inactivated Fetal Bovine Serum (HyClone), 1% Penicillin-Streptomycin-L-Glutamine (HyClone), 1% GlutaMAX (Gibco)). […] After 72 h incubation, plates were removed from incubators and allowed to equilibrate to room temperature (˜10 min) before adding 50 μL per well Cell-Titer Glo reagent (Promega) using a WellJet (Integra Biosciences) dispenser. Plates were then incubated at room temperature for 2-20 min prior to measurement of luminescence on an Envision (Perkin Elmer) plate reader. Data were normalized to DMSO (100% viability) and analyzed using a non-linear four-parameter curve fit.

Row | SMILES | pIC50
1 | O=C(c1ccc(-n2nnc3cccnc32)cc1F)N(c1nccc2sc(-c3ccc(CO)s3)cc12)[C@@H]1CCCNC1 [Example 426, 2-fluoro-N-[2-[5-(hydroxymethyl)-2-thienyl]thieno [3,2-c]pyridin-4-yl]-N-[(3R)-3-piperidyl]-4-(triazolo [4,5-b]pyridin-3-yl) benzamide] | 6.80
2 | Cc1nnc(-c2ccc(C(=O)N(c3nccc4sc(-c5ccc(C(N)=O)cc5)cc34)[C@@H]3CCCNC3)c(F)c2)s1 [Example 827, N-[2-(4-carbamoylphenyl)thieno[3,2-c]pyridin-4-yl]-2-fluoro-4-(5-methyl-1,3,4-thiadiazol-2-yl)-N-[(3R)-3-piperidyl]benzamide] | 6.04
3 | Cn1cc(-c2ccc(C(=O)N(c3nccc4sc(-c5ccc(C(=O)Nc6ccccc6)cc5)cc34)[C@@H]3CCCNC3)c(F)c2)nn1 [Example 523, 2-fluoro-4-(1-methyltriazol-4-yl)-N-[2-[4-(phenylcarbamoyl)phenyl]thieno[3,2-c]pyridin-4-yl]-N-[(3R)-3-piperidyl]benzamide] | 6.04
4 | Cc1cc(-c2cc3c(N(C(=O)c4ccc(-c5cn(C)nn5)cc4F)[C@@H]4CCCNC4)nccc3s2)cc(C)c1C(N)=O [Example 611, (R)—N-(2-(4-carbamoyl-3,5-dimethylphenyl)thieno[3,2-c]pyridin-4-yl)-2-fluoro-4-(1-methyl-1H-1,2,3-triazol-4-yl)-N-(piperidin-3-yl)benzamide] | 5.64
5 | Cn1cc(-c2ccc(C(=O)N(c3nccc4sc(-c5ccc(C(O)C(F)(F)F)cc5)cc34)[C@@H]3CCCNC3)c(F)c2)nn1 (stereo partly drawn) [Example 605, 2-fluoro-4-(1-methyl-1H-1,2,3-triazol-4-yl)-N—((R)-piperidin-3-yl)-N-(2-(4-(2,2,2-trifluoro-1-hydroxyethyl)phenyl)thieno[3,2-c]pyridin-4-yl)benzamide] | 6.33
6 | Cn1cc(-c2ccc(C(=O)N(c3nccc4cc(-c5ccc(CN)cc5)ccc34)[C@@H]3CCCNC3)c(F)c2)nn1 [Example 834, (R)—N-(6-(4-(aminomethyl)phenyl)isoquinolin-1-yl)-2-fluoro-4-(1-methyl-1H-1,2,3-triazol-4-yl)-N-(piperidin-3-yl)benzamide] | 6.85
7 | CN(C)C/C=C/C(=O)Nc1cccc(C2CCN(C(=O)N(c3nccc4ccn(C)c34)[C@@H]3CCCNC3)CC2)c1 [Example 304, (R,E)-4-(3-(4-(dimethylamino)but-2-enamido)phenyl)-N-(1-methyl-1H-pyrrolo[2,3-c]pyridin-7-yl)-N-(piperidin-3-yl)piperidine-1-carboxamide] | 7.43
8 | CC(C)Cn1cc(-c2cc3c(N(C(=O)c4ccc(-n5nnc6cccnc65)cc4F)[C@@H]4CCCNC4)nccc3s2)nn1 [Example 415, 2-fluoro-N-[2-(1-isobutyltriazol-4-yl)thieno[3,2-c]pyridin-4-yl]-N-[(3R)-3-piperidyl]-4-(triazolo[4,5-b]pyridin-3-yl)benzamide] | 5.92
9 | Cc1cccc2ccnc(N(C(=O)c3ccc(Nc4nccc(N5CCOC[C@H]5CO)n4)cc3F)[C@@H]3CCCNC3)c12 [Example 942, 2-fluoro-4-((4-((R)-3-(hydroxymethyl)morpholino)pyrimidin-2-yl)amino)-N-(8-methylisoquinolin-1-yl)-N—((R)-piperidin-3-yl)benzamide] | 7.06
10 | Cc1nnc(-c2ccc(C(=O)N(c3nccc4cc(-c5nccs5)cc(C)c34)[C@@H]3CCCNC3)c(F)c2)s1 (racemic) [Example 733, 2-fluoro-4-(5-methyl-1,3,4-thiadiazol-2-yl)-N-(8-methyl-6-thiazol-2-yl-1-isoquinolyl)-N-[rac-(3R)-3-piperidyl] benzamide] | 7.34
11 | Cc1cccc2ccnc(N(C(=O)c3ccc(Nc4nccc(C5CCNCC5)n4)cc3F)[C@@H]3CCCNC3)c12 [Example 662, (R)-2-fluoro-N-(8-methylisoquinolin-1-yl)-N-(piperidin-3-yl)-4-((4-(piperidin-4-yl)pyrimidin-2-yl)amino)benzamide] | 6.40
12 | Cn1cc(-c2ccc(C(=O)N(c3nccc4cc(/C=C/C(=O)O)ccc34)[C@@H]3CCCNC3)c(F)c2)nn1 [Example 494, (R,E)-3-(1-(2-fluoro-4-(1-methyl-1H-1,2,3-triazol-4-yl)-N-(piperidin-3-yl)benzamido)isoquinolin-6-yl)acrylic acid] | < 5.00
13 | CC(C)(O)c1ccc(-c2cc3c(N(C(=O)c4ccc(-n5nnc6cccnc65)cc4F)[C@@H]4CCCNC4)nccc3s2)cc1 [Example 585, (R)-4-(3H-[1,2,3]triazolo[4,5-b]pyridin-3-yl)-2-fluoro-N-(2-(4-(2-hydroxypropan-2-yl)phenyl)thieno[3,2-c]pyridin-4-yl)-N-(piperidin-3-yl)benzamide] | 6.36
14 | C=C(C)c1cccnc1N(C(=O)c1ccc(Nc2ncccn2)cc1F)[C@@H]1CCCNC1 [Example 930, (R)-2-fluoro-N-(piperidin-3-yl)-N-(3-(prop-1-en-2-yl)pyridin-2-yl)-4-(pyrimidin-2-ylamino)benzamide] | 6.40
15 | O=C(c1ccc(-n2nnc3cccnc32)cc1F)N(c1nccc2cc(-c3cccnc3)ccc12)[C@@H]1CCCNC1 [Example 367, (R)-4-(3H-[1,2,3]triazolo[4,5-b]pyridin-3-yl)-2-fluoro-N-(piperidin-3-yl)-N-(6-(pyridin-3-yl)isoquinolin-1-yl)benzamide] | 6.60
16 | Cc1cccc2ccnc(N(C(=O)c3ccc(-c4cncc(C(N)=O)n4)cc3F)[C@@H]3CCCNC3)c12 [Example 318, (R)-6-(3-fluoro-4-((8-methylisoquinolin-1-yl)(piperidin-3-yl)carbamoyl)phenyl) pyrazine-2-carboxamide] | 6.66
17 | Cc1nnc(-c2ccc(C(=O)N(c3nccc4scc(C)c34)[C@@H]3CCCNC3)c(C)c2)s1 [Example 757, 2-methyl-4-(5-methyl-1,3,4-thiadiazol-2-yl)-N-(3-methylthieno[3,2-c]pyridin-4-yl)-N-[(3R)-3-piperidyl]benzamide] | 6.28
18 | Cc1ncc(-c2cc(C)c3c(N(C(=O)c4ccc(-c5nnc(C)s5)cc4F)[C@@H]4CCCNC4)nccc3c2)s1 [Example 732, 2-fluoro-N-[8-methyl-6-(2-methylthiazol-5-yl)-1-isoquinolyl]-4-(5-methyl-1,3,4-thiadiazol-2-yl)-N-[(3R)-3-piperidyl]benzamide] | 7.31
19 | CNC(=O)c1ccc2c(N(C(=O)c3ccc(-n4nnc5cccnc54)cc3F)[C@@H]3CCCNC3)nccc2c1 [Example 369, (R)-1-(4-(3H-[1,2,3]triazolo[4,5-b]pyridin-3-yl)-2-fluoro-N-(piperidin-3-yl)benzamido)-N-methylisoquinoline-6-carboxamide] | 6.64
20 | COCc1cn(-c2ccc(C(=O)N(c3nccc4cc(Cl)cc(C)c34)[C@@H]3CCCNC3)nc2)nn1 [Example 632, (R)—N-(6-chloro-8-methylisoquinolin-1-yl)-5-(4-(methoxymethyl)-1H-1,2,3-triazol-1-yl)-N-(piperidin-3-yl)picolinamide] | 6.72
21 | Cc1cccc2ccnc(N(C(=O)c3ccc(Nc4nccc(-c5ccc(N)nc5)n4)cc3F)[C@@H]3CCCNC3)c12 [Example 720, (R)-4-((4-(6-aminopyridin-3-yl)pyrimidin-2-yl)amino)-2-fluoro-N-(8-methylisoquinolin-1-yl)-N-(piperidin-3-yl)benzamide] | 7.26
